From ChEMBL document CHEMBL1201862, “PubChem BioAssay data set” (2004)
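Growth conditions: 96-well plates. Treatment: test compound, 48 hours, 5 concentrations. Analysis: linear interpolation between bracketing concentrations; unreached endpoints set to highest concentration. Abbreviation: GI50, concentration required for 50% inhibition of growth.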 Active and inactive are the calls of the source. Cut-off read from the data, not from the text of the source: active = GI50 up to about 1.1 µM and inactive = higher.

Assays:
Assay in all cases: growth of human tumour cells (NCI), 48 h
ACHN = system: ACHN
DU-145 = system: DU-145
HCC 2998 = system: HCC 2998
HCT-116 = system: HCT-116
MCF7 = system: MCF7
Malme-3M = system: Malme-3M
NCI-H226 = system: NCI-H226
NCI-H23 = system: NCI-H23
OVCAR-3 = system: OVCAR-3
SK-MEL-28 = system: SK-MEL-28
SK-MEL-5 = system: SK-MEL-5
SK-OV-3 = system: SK-OV-3
SN12C = system: SN12C
SNB-19 = system: SNB-19
SW-620 = system: SW-620
T47D = system: T47D
UO-31 = system: UO-31
HOP-92 = system: HOP-92
OVCAR-4 = system: OVCAR-4
RXF 393 = system: RXF 393

Measured: GI50

Cc1ncc([N+](=O)[O-])n1CCNC(=O)Cn1c([N+](=O)[O-])cnc1C
inactive: ACHN > 100 µM | DU-145 92.5 µM | HCC 2998 > 100 µM | HCT-116 > 100 µM | MCF7 > 100 µM | Malme-3M > 100 µM | NCI-H226 > 100 µM | NCI-H23 > 100 µM | OVCAR-3 > 100 µM | SK-MEL-28 > 100 µM | SK-MEL-5 > 100 µM | SK-OV-3 > 100 µM | SN12C > 100 µM | SNB-19 > 100 µM | SW-620 > 100 µM | T47D > 100 µM | UO-31 > 100 µM

O=C(N/N=C1/C(=O)c2c3ccccc3cc3cccc1c23)c1cccc(Cl)c1
inactive: ACHN 33 µM | DU-145 70.3 µM | HCC 2998 > 100 µM | HCT-116 > 100 µM | HOP-92 > 100 µM | NCI-H226 > 100 µM | NCI-H23 > 100 µM | OVCAR-3 > 100 µM | OVCAR-4 > 100 µM | RXF 393 > 100 µM | SK-MEL-28 > 100 µM | SK-MEL-5 > 100 µM | SK-OV-3 > 100 µM | SN12C > 100 µM | SNB-19 41.4 µM | SW-620 > 100 µM

CCN1CN(c2ccccc2)C2(CCN(CC3COc4ccccc4O3)CC2)C1=O (configuration not stated)
inactive: ACHN 23.1 µM | DU-145 36.6 µM | HCT-116 17.6 µM | MCF7 26.1 µM | Malme-3M 16.9 µM | NCI-H226 24 µM | NCI-H23 40.6 µM | OVCAR-3 31.2 µM | RXF 393 15.5 µM | SK-MEL-28 32.5 µM | SK-MEL-5 18.2 µM | SK-OV-3 28.6 µM | SN12C 41.5 µM | SNB-19 36.2 µM | SW-620 47.8 µM | T47D 24.3 µM | UO-31 29 µM

O=C1CN(c2ccccc2)C(=O)CN1NCNN1CC(=O)N(c2ccccc2)CC1=O
inactive: ACHN > 100 µM | DU-145 > 100 µM | HCC 2998 > 100 µM | HCT-116 > 100 µM | HOP-92 > 100 µM | MCF7 > 100 µM | Malme-3M > 100 µM | NCI-H23 58.5 µM | OVCAR-3 > 100 µM | OVCAR-4 > 100 µM | RXF 393 > 100 µM | SK-MEL-28 > 100 µM | SK-MEL-5 > 100 µM | SK-OV-3 > 100 µM | SN12C > 100 µM | SNB-19 > 100 µM | SW-620 > 100 µM | UO-31 > 100 µM

CCc1c2c([nH]c(=S)c1C#N)CCC2
inactive: ACHN > 100 µM | DU-145 > 100 µM | HCC 2998 > 100 µM | HCT-116 > 100 µM | HOP-92 2.35 µM | MCF7 > 100 µM | Malme-3M > 100 µM | NCI-H226 > 100 µM | NCI-H23 > 100 µM | OVCAR-3 > 100 µM | OVCAR-4 > 100 µM | RXF 393 > 100 µM | SK-MEL-28 > 100 µM | SK-MEL-5 > 100 µM | SK-OV-3 > 100 µM | SNB-19 > 100 µM | SW-620 > 100 µM | UO-31 > 100 µM

O=Cc1ccc2c(c1)CC1(Cc3ccccc3C1)C2
inactive: ACHN 22.1 µM | HCC 2998 59 µM | HCT-116 > 100 µM | HOP-92 16.4 µM | MCF7 31 µM | Malme-3M 18.2 µM | NCI-H226 22.5 µM | NCI-H23 23.3 µM | OVCAR-3 14.3 µM | OVCAR-4 17.6 µM | RXF 393 > 100 µM | SK-MEL-5 16 µM | SK-OV-3 38.1 µM | SN12C 18.1 µM | T47D 25.9 µM | UO-31 31.3 µM

CC(C)CC(O)P(=O)(O)O.NC1CCCCC1 (configuration not stated)
inactive: ACHN > 100 µM | DU-145 > 100 µM | HCC 2998 > 100 µM | HCT-116 > 100 µM | MCF7 > 100 µM | NCI-H226 > 100 µM | OVCAR-3 > 100 µM | OVCAR-4 > 100 µM | RXF 393 > 100 µM | SK-MEL-28 > 100 µM | SK-MEL-5 > 100 µM | SK-OV-3 > 100 µM | SN12C > 100 µM | SNB-19 > 100 µM | SW-620 > 100 µM | T47D > 100 µM | UO-31 > 100 µM

COc1nc2c(c(=O)[nH]1)N=C(c1ccc([N+](=O)[O-])cc1)CC(c1ccccc1)N2 (configuration not stated)
inactive: ACHN 76.4 µM | DU-145 > 100 µM | HCC 2998 > 100 µM | HCT-116 34.5 µM | HOP-92 84.3 µM | MCF7 57.7 µM | Malme-3M > 100 µM | NCI-H226 > 100 µM | NCI-H23 69.8 µM | OVCAR-3 > 100 µM | OVCAR-4 62.8 µM | RXF 393 94.6 µM | SK-MEL-28 94.8 µM | SK-MEL-5 49.7 µM | SN12C > 100 µM | SNB-19 > 100 µM | SW-620 > 100 µM | UO-31 62.4 µM

NC1=NCC(c2ccccn2)C1c1ccc(F)cc1 (configuration not stated)
inactive: ACHN > 100 µM | HCC 2998 > 100 µM | HCT-116 > 100 µM | HOP-92 > 100 µM | Malme-3M > 100 µM | NCI-H226 > 100 µM | NCI-H23 > 100 µM | OVCAR-3 > 100 µM | OVCAR-4 > 100 µM | RXF 393 > 100 µM | SK-MEL-28 > 100 µM | SK-MEL-5 > 100 µM | SK-OV-3 > 100 µM | SN12C > 100 µM | SNB-19 > 100 µM | SW-620 > 100 µM | UO-31 > 100 µM

CC(Nc1ncc2c(n1)-c1ccccc1OC2)C(=O)O (configuration not stated)
inactive: ACHN > 100 µM | DU-145 30.3 µM | HCT-116 > 100 µM | HOP-92 35.9 µM | MCF7 42.9 µM | Malme-3M > 100 µM | NCI-H226 61.7 µM | NCI-H23 86.5 µM | OVCAR-3 27.9 µM | OVCAR-4 > 100 µM | RXF 393 > 100 µM | SK-MEL-28 > 100 µM | SK-MEL-5 > 100 µM | SK-OV-3 > 100 µM | SN12C 59.7 µM | SNB-19 > 100 µM | SW-620 > 100 µM | UO-31 41.2 µM

CC(=O)C(C(=O)c1ccc(C)cc1)[C@H]1OC(C)(C)O[C@H]1[C@H]1COC(C)(C)O1 (some centres not stated)
inactive: ACHN 6.15 µM | HCC 2998 7.24 µM | HCT-116 2.25 µM | HOP-92 7.98 µM | MCF7 1.97 µM | Malme-3M 6.92 µM | NCI-H226 14.5 µM | NCI-H23 2.07 µM | OVCAR-4 2.53 µM | RXF 393 2.69 µM | SK-MEL-28 6.18 µM | SK-MEL-5 5.08 µM | SK-OV-3 10.3 µM | SN12C 1.9 µM | SNB-19 9.95 µM | SW-620 1.84 µM | T47D 6.53 µM | UO-31 6.98 µM

COP(=O)(OC)C(O)CC(C)C (configuration not stated)
inactive: ACHN > 100 µM | DU-145 > 100 µM | HCC 2998 > 100 µM | HCT-116 > 100 µM | MCF7 > 100 µM | NCI-H226 > 100 µM | OVCAR-3 > 100 µM | OVCAR-4 > 100 µM | RXF 393 > 100 µM | SK-MEL-28 > 100 µM | SK-MEL-5 > 100 µM | SK-OV-3 > 100 µM | SN12C > 100 µM | SNB-19 > 100 µM | SW-620 > 100 µM | T47D > 100 µM | UO-31 > 100 µM

Cc1c(-c2ccccc2)nn2cc(-c3ccccc3)nnc12
inactive: ACHN 46.3 µM | DU-145 30.4 µM | HCC 2998 15.5 µM | HCT-116 20.7 µM | HOP-92 15.5 µM | Malme-3M 13.3 µM | NCI-H226 21.2 µM | NCI-H23 31.9 µM | OVCAR-3 32.7 µM | OVCAR-4 44.5 µM | RXF 393 18.2 µM | SK-MEL-28 27.6 µM | SK-MEL-5 16.3 µM | SK-OV-3 39.3 µM | SN12C 37.9 µM | SNB-19 40.8 µM | SW-620 23 µM | T47D 61.2 µM | UO-31 29.1 µM

COc1ccc(/C=c2/sc3n(c2=O)C(c2ccccc2)C2(O)CCCCC2N=3)cc1 (configuration not stated)
inactive: ACHN > 12.5 µM | HCC 2998 > 12.5 µM | HCT-116 > 12.5 µM | MCF7 > 12.5 µM | Malme-3M > 12.5 µM | NCI-H226 > 12.5 µM | NCI-H23 > 12.5 µM | OVCAR-3 > 12.5 µM | OVCAR-4 > 12.5 µM | SK-MEL-28 > 12.5 µM | SK-MEL-5 > 12.5 µM | SNB-19 > 12.5 µM | SW-620 > 12.5 µM | T47D > 12.5 µM | UO-31 > 12.5 µM

Cc1cc(C)c2nccc(NCCCN(C)C)c2c1[N+](=O)[O-]
inactive: ACHN 34.9 µM | DU-145 44.2 µM | HCC 2998 22.8 µM | HCT-116 30.9 µM | MCF7 30.5 µM | Malme-3M 19.3 µM | NCI-H23 19.2 µM | OVCAR-3 35.5 µM | OVCAR-4 13.8 µM | RXF 393 19.5 µM | SK-MEL-28 19.6 µM | SK-MEL-5 13.5 µM | SK-OV-3 > 100 µM | SN12C 40.9 µM | SNB-19 > 100 µM | SW-620 26.9 µM | T47D 33.3 µM | UO-31 20.3 µM

C/C(=N\NC(=O)c1ccncc1)c1cccc(F)c1
inactive: ACHN > 10 µM | HCC 2998 > 10 µM | HCT-116 > 10 µM | HOP-92 > 10 µM | MCF7 > 10 µM | Malme-3M > 10 µM | NCI-H226 > 10 µM | NCI-H23 > 10 µM | OVCAR-3 > 10 µM | RXF 393 > 10 µM | SK-MEL-28 > 10 µM | SK-MEL-5 > 10 µM | SK-OV-3 > 10 µM | SN12C > 10 µM | SNB-19 > 10 µM | SW-620 > 10 µM | T47D > 10 µM | UO-31 > 10 µM
